The values below come from patent US20240156790A1, “COMPOUNDS, COMPOSITIONS, AND METHODS FOR MODULATING FERROPTOSIS AND TREATING EXCITOTOXIC DISORDERS” (THE TRUSTEES OF COLUMBIA UNIVERSITY IN THE CITY OF NEW YORK, priority 2018, published 2024).

Entries after “also recorded” stand apart in the source; their conditions may differ. Bounds are passed on as bounds.

Data set [1] has as its system HT-1080 fibrosarcoma cells. The following applies: cited from earlier work.
The nature of data set [2]: Microsomal stability, rat (Table 1). The class given is in vitro ADME. The following applies: Rat: Sprague Dawley; for half-life: liver microsomes, read-out: Microsomal Stability t1/2 (converted).
A short description of data set [3]: Microsomal stability, human liver microsomes (Table 1). The class given is in vitro ADME. The following applies: Human: Pooled, 50 donors; for half-life: liver microsomes, read-out: Microsomal Stability t1/2 (converted). In general terms: Liver microsomes are vesicles of endoplasmic reticulum, rich in cytochrome P450 enzymes.
The test system of data set [4] is HT-1080 cells. The data set is described as follows: Rescue activity of Fer-1 analogs: inhibition of erastin-, IKE- or RSL3-induced death (Alamar Blue viability). The class given is cell-based. Particulars: Homo sapiens. The method, then:
HT-1080 cells are cultured in DMEM containing 10% fetal bovine serum, 1% supplemented non-essential amino acids and 1% pen/strep mixture (Gibco) and maintained in a humidified environment at 37° C. with 5% CO2 in a tissue culture incubator. 1,000 HT-1080 cells are seeded per well in duplicate 384-well plates (Corning) using a BioMek FX liquid handling robot (Beckman Coulter). The next day, the medium is replaced with 36 μL of medium containing 10 μM erastin with 4 μL of medium containing a dilution series (previously prepared) of DMSO, Fer-1 (positive control) or Fer-1 analogs. […] Cells are incubated a further 6 hours and then the Alamar Blue fluorescence intensity recorded using a Victor 3 platereader (PerkinElmer)(ex/em 530/590). All experiments are performed at least twice and the background (no cells)-subtracted Alamar Blue values for each combination are averaged between replicates. The same procedure was repeated by replacing erastin (10 μM) with IKE (3 μM) or RSL3 (0.2 μM).
(Alamar Blue is a resazurin reagent that responds to reducing activity.)

Data set [5] is described as follows: Microsomal stability, dog (Table 1). The following applies: liver microsomes; Dog: Beagle; read-out: Microsomal Stability t1/2. The class given is in vitro ADME. The method, then: (§1) Each compound (1 μM) is incubated with mouse plasma, for 4 hours at 37° C., with shaking at 100 rpm. The concentration of compound in the buffer and plasma chambers is determined using LC-MS/MS. Metabolism of each compound is predicted using Sites of Metabolism (Schrodinger Suite), which combines intrinsic reactivity analysis (Hammett-Taft) with induced fit docking against 2C9, 2D6 and 3A4. This approach identifies 90% of known metabolism sites and has a false positive rate of 17%. The in vitro metabolic stability of each compound in mouse liver microsomes is determined. Pooled mouse liver microsomes are prepared and stored at −80° C. until needed. Compound stability in liver microsomes is measured at 0, 15, 30, 45 and 60 minutes in duplicate, using LC-MS/MS analysis.

Data set [6] in a line: Microsomal stability, mouse liver microsomes (Table 1). The format is in vitro ADME, Mouse: CD1. The following applies: liver microsomes. As for the experimental part:
as §1, with “Compound stability in liver microsomes is measured at 0, 15, 30, 45 and 60 minutes in duplicate, using LC-MS/MS analysis.” left out

For data set [7], the system named is HT-1080 cells. The data set is described as follows: Rescue activity of selected Fer-1 analogs, dose-response in HT-1080 cells (cell titer glo). Particulars: for potency compared, in words: 0.2 μM RSL3, 10 μM erastin; for IC50: Homo sapiens, HT-1080, range 10 μM-0 μM. The format is cell-based. The method, then: Selected Fer-1 analogs containing a pyridine moiety (FIG. 4) were tested to examine their efficacy and overall potency in inhibiting ferroptosis. For each of these compounds, dose-response curves were generated in HT-1080 cells looking at the effectiveness of the molecules in inhibiting ferroptosis induced by either 3 μM IKE or 0.2 μM RSL3, Fer-1 was used as a positive control. For each dose-response curve, 1,000 cells/well were seeded in a 384 well plate and allowed to adhere overnight prior to treating with compound from a daughter plate. Cells were treated for 48 hours, unless otherwise noted, prior to viability being analyzed using cell titer glo (40 μL per well). All liquid handling was performed using the BioMek. All samples were prepared in triplicate, unless otherwise noted.
(In general: In ATP-based viability assays light output follows the ATP content of the culture.)

The test system of data set [8] is HT-1080 cells. The data set is described as follows: Cell viability assays in HT-1080 cells, ferroptosis induced by IKE or RSL3 (Example 8). The format is cell-based. Particulars: for IC50: Homo sapiens, HT-1080, 48 h. As for the experimental part: Cell culture assays were incubated at 37° C. with 5% CO2. HT-1080 cells were grown in DMEM (Corning) supplemented with 10% FBS (Life Technologies), 1% Penicillin-Streptomycin 10,000 U/mL (Gibco), and 1% MEM Non-Essential Amino Acids Solution 100× (Gibco). For cell viability assays, cells were trypsinized, counted, and seeded into 384-well white polypropylene plates at 1,000 cells/well, unless otherwise specified. After allowing cells to adhere overnight, compounds in DMSO stocks were arrayed in a 16-point dilution series prepared in a mother plate, and treated from a daughter plate, [DMSO]=0.28%. After 24 or 48 h, 50% CellTiter-Glo (Promega) 50% cell culture medium was added to each well and incubated at room temperature with shaking for 15 min. Luminescence was measured using a Victor X5 plate reader (PerkinElmer). All cell viability data were normalized to the DMSO vehicle condition. […] All 384w measurements were performed in triplicate
We first evaluated the efficacy of four pyridine analogs, TH-2-9-1, TH-2-31, TH-2-37-1, and TH-2-37-2, in suppressing ferroptosis induced by IKE and RSL3 in HT-1080 cells. […] We sought to determine whether incorporation of pyridine changed stability in mouse liver microsomes.

Setting [9] is: HT-1080, ^a 50% viability, HT-1080 cells treated with 10 μM erastin.
Where [10] appears, read: HT-1080, ^b 50% viability, HT-1080 treated with 3 μM IKE.
The mark [11] stands for this setting: HT-1080, ^c 50% viability, HT-1080 treated with 0.2 μM RSL3.
The mark [12] stands for this setting: CD1, mouse, Mouse: CD1, read-out: Microsomal Stability t1/2.

For the compound `CCOC(=O)c1ccc(NC2CCCCC2)c(NCc2ccccc2)c1` [SRS11-92], in data set [1], the “potency, in words” value is given as “low nanomolar potency”.
A word on the EC50: it is the concentration at which the effect is half-maximal. For `Nc1cc(-c2ncco2)ccc1NC1CCCCC1` [CFI-4051], the half-life in data set [2] was 30 to 60 min; in data set [3], above 120 min; in data set [5] it was above 120 min; in data set [6] (setting [12]), 3.2 to 3.3 min. Also, the EC50 in data set [4] (setting [9]) worked out at 36 nM; in data set [4] (setting [10]), 13 nM; in data set [4] (setting [11]), 5 nM.
In general, IC50 refers to the midpoint of a concentration-inhibition curve. Regarding `COc1cnc(NC2CCCCC2)c(NC2CCCCC2)c1` [TH-2-9-1, N^2,N^3-dicyclohexyl-5-methoxypyridine-2,3-diamine], in data set [7] (0.2 μM RSL3, inhibitor range 10 μM-0 μM), the “death observed with RSL3” value is “No death was observed”. In addition, in data set [7] (3 μM IKE), the “potency compared, in words” value was “an order of magnitude more potent than Fer-1 for all inducers beyond RSL3; also recorded: the most potent analog for RSL3 alone”. Besides, in data set [7] (inhibitor 1 μM-0 μM, 3 μM IKE, 10 μM erastin, 48 hours), the “rescue against IKE and erastin” value is recorded as around 50%. Moreover, the EC50 in data set [4] (setting [9]) amounted to 0.1 nM; in data set [4] (setting [10]) it was 0.21 nM; in data set [4] (setting [11]), 0.2 nM. In data set [8], the “potency relative to fer-1 at suppressing ferroptosis, in words” value was “slightly less potent than fer-1 in inhibiting IKE-induced death”. The half-maximal inhibitory concentration (IC50) was 16.9 nM in data set [8] (^b 2 μM IKE, 48 hours, 1,000 cells/well) and 2.7 nM in data set [8] (^c 0.2 μM RSL3, 48 hours, 1,000 cells/well). Moreover, the half-life in data set [6] (setting [12]) turned out to be 7.7 min.
For `CC(C)(C)OC(=O)c1ccc(NC23CC4CC(CC(C4)C2)C3)c(N=Cc2cncnc2)c1` [SRS16-86], in data set [1], the “decrease in potency relative to SRS11-92” value is listed as above 50 fold and the “decrease in potency relative to fer-1” value was around 4 fold.
Turning to `C=C(/C=C\CNC12CC3CC(CC(C3)C1)C2)COC(C)(C)C` [CFI-A4], the “Microsomal Stability t1/2” value in data set [2] is around 20 min; in data set [3], above 120 min. In addition, the EC50 in data set [4] (setting [10]) stood at 16 nM; in data set [4] (setting [11]) it was 1 nM.
On to `Cc1noc(-c2cnc(NC3CCCCC3)c(NC3CCCCC3)c2)n1` [CFI-102], for which, in data set [7] (3 μM IKE), the “potency compared, in words” value is listed as “the most potent analog for both IKE an RSL3”. The IC50 in data set [7] (0.2 μM RSL3, 48 hours, read-out: IC50 against RSL3) was in the range of 10 to 20 nM; in data set [7] (3 μM IKE, 48 hours, read-out: IC50 against IKE), 10 to 20 nM. Moreover, the “toxicity (overall drop in viability)” value in data set [7] (at 10 μM compound) was “appeared to be toxic”. Also, the “concentration achieving full rescue” value in data set [7] (starting concentration 5 μM, treated 51 hours, IKE and RSL3) is reported as “around 0.0001 μM”. The EC50 in data set [4] (setting [10]) and in data set [4] (setting [11]) was 0.9 nM in each case. For the same compound, the half-life in data set [6] (setting [12]) fell in the range of 30 to 60 min.
Take `Cc1noc(-c2ccc(NC34CC5CC(CC(C5)C3)C4)c(NC3CCCCC3)c2)n1` [CFI-4083]: the half-life in data set [3] is above 120 min; in data set [6] (CD1 (mouse), mouse, human, in either mouse or human liver microsomes, read-out: T1/2) it was above 120 min; in data set [6] (setting [12]), above 120 min.
As to `CC(C)(C)OC(=O)c1cc(N)c(NC23CC4CC(CC(C4)C2)C3)cc1Cl` [CFI-A3], the half-life is 30 to 60 min in data set [2], above 120 min in data set [3], above 120 min in data set [5] and 16.2 to 16.6 min in data set [6] (setting [12]). In addition, the EC50 in data set [4] (setting [10]) came to 26 nM; in data set [4] (setting [11]) it was 6 nM.
Turning to `CCCC(CC)Nc1ccc(C(=O)OC(C)(C)C)cc1Nc1ccccc1` (stereo not drawn) [CFI-4081], in data set [3], the “Microsomal Stability t1/2” value was above 120 min.
